The source of these data is patent US20150175655A1 (priority 2012, published 2015).

One test concerns the target T1, NS3 genotype 3a protease (UniProt Q81258).
T1 construct: Purified NS3 protease domain (amino acids 1-181) of the genotype 1b and 3a virus were generated as above; fused on or other part: N-terminal hexahistidine tag and rTEV protease cleavage site (vector p28-N6H-Tev-NS3(181)3)
T1 sequence (Q81258 1033-1663): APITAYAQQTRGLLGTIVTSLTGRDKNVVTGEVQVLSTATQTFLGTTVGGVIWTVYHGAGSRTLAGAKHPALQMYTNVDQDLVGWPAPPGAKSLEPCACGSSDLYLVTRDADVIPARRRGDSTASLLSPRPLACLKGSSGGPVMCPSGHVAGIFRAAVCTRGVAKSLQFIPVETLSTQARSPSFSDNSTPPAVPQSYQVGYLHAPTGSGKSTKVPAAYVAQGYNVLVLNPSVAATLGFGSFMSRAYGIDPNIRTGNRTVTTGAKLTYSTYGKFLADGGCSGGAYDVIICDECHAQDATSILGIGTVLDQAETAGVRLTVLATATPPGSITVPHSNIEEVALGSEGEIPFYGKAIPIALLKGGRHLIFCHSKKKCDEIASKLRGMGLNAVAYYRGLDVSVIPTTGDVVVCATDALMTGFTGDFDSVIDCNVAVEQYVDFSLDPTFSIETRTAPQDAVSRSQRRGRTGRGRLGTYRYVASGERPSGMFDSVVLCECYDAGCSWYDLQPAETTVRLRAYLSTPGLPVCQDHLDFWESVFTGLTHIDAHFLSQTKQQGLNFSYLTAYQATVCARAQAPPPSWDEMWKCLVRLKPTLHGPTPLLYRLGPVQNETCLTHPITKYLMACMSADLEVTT
Description: Ki determination, NS3 protease genotype 3a (fluorogenic depsipeptide substrate). In kind it is biochemical, hepatitis C virus. The conditions noted are these: 200 pM enzyme, 20 μM NS4A peptide, 2 μM substrate, read-out: Ki 3A. The source says: The coding sequences for the genotype 3 HCV protease domain was amplified by RT-PCR using a Titan One Tube RT-PCR Kit (Roche, Indianapolis, Ind.) and RNA extracted from HCV-positive human serum (BBI Diagnostics, MA) using a QIAmp UltraSens Virus Kit (Qiagen, Valencia, Calif.). 5′ PCR primers were designed to encode N-terminal hexahistidine tags and to insert in-frame rTEV protease cleavage sites into the NS3 protease coding sequences. The resulting DNA fragments were cloned into pET28 yielding the expression vectors p28-N6H-Tev-NS3(181)1a and p28-N6H-Tev-NS3(181)3, respectively.
BL21AI bacteria (Invitrogen, Carlsbad, Calif.) were transformed with genotype 1b or 3 NS3 expression vectors and used to inoculate a 20 L fermentation vessel (Sartorius BBI System Inc., Bethlehem, Pa.), containing 18 L of fresh 2YT medium supplemented with 50 μg/mL kanamycin. When cell densities reached an OD600 of 1, the temperature of the cultures was reduced from 37° C. to 28° C. and induction was immediately initiated by the addition of 30 μM ZnSO4, 14 mM L-arabinose and 1 mM Isopropyl β-D-thiogalactoside (IPTG) final concentrations. Cells were harvested by centrifugation four hours post-induction and were stored as frozen pellets at −80° C. prior to NS3 protein purification.
Bacterial pellets collected from the expression of genotype 3 HCV NS3 protease were homogenized in Lysis Buffer (25 mM tris, pH 7.5 buffer containing 150 mM NaCl and 1 mM phenylmethanesulfonyl fluoride (PMSF)) and passed through a microfluidizer at 18,000 pounds/in^2. Homogenized cell lysates were centrifuged at 30,000×g for 30 minutes at 4° C. The resulting P1 pellets were washed with Wash Buffer I (25 mM tris, pH 7.5 containing 1% CHAPS) followed by centrifugation at 10,000×g for 30 minutes at 4° C. […] The resulting P3 pellets were resuspended in Solubilization Buffer (20 ml of 25 mM tris, pH 7.5 containing 150 mM NaCl and 8 M urea) and incubated at 4° C. for one hour. Solubilized proteins were passed through a 0.45 micron filter. Protein concentrations were measured and the solutions were adjusted to 40 mM DTT, incubated for 30 minutes at 4° C. and then quickly diluted into Refolding Buffer (25 mM tris, pH 8.5, 0.8 M Guanidine-HCl, 0.4 M L-Arginine, 10 mM ZnSO4) while stirring. Protein solutions were incubated at 4° C. overnight to allow refolding. Refolded proteases were centrifuged at 30,000×g for 10 minutes to remove residual precipitates. Final protein concentrations were then measured and the NS3 proteases were aliquoted, snap frozen in liquid nitrogen and stored at −80° C.
Purified NS3 protease domain (amino acids 1-181) of the genotype 1b and 3a virus were generated as above. The internally quenched fluorogenic depsipeptide substrate Ac-DED(Edans)-EEAbuψ[COO]ASK(Dabcyl)-NH2 and a synthetic peptide containing the hydrophobic core residues of the NS4A protein cofactor ([…]; NS4A peptide) were obtained from Anaspec, Inc. (San Jose, Calif.). Other chemicals and biochemicals were of reagent grade or better and were purchased from standard suppliers.
Reactions were run at room temperature in buffer consisting of 50 mM HEPES, 40% glycerol, 0.05% Triton X-100, 10 mM DTT, and 10% DMSO. The final assay solutions contained 50 pM NS3 genotype 1b protease or 200 pM genotype 3a protease, 20 μM NS4A peptide, and 4 μM substrate (genotype 1 b) or 2 μM substrate (genotype 3a). Inhibitor concentrations varied from 100 nM to 5 pM in 3-fold dilutions, and no-inhibitor controls were included.
Compound dilutions were made in DMSO at 20× final concentration. Reaction mixtures were prepared in 96-well assay plates. A solution of enzyme and NS4A peptide in assay buffer (25 μL volume with both reagents at 4× final concentration) was mixed with 45 μL assay buffer and 5 μL of either inhibitor or DMSO, and pre-incubated at room temperature for 1 hour. The reaction was started by addition of 25 μL substrate solution at 4× final concentration. […]
On to `CC[C@@H]1[C@@H]2CN(C(=O)[C@H](C(C)(C)C)NC(=O)O[C@@H]3C[C@H]3CCCCCc3nc4ccc(OC)cc4nc3O2)[C@@H]1C(=O)N[C@]1(C(=O)NS(=O)(=O)C2CC2)C[C@H]1C(F)F` [Example 2, (1aR,5S,8S,9S,10R,22aR)-5-tert-butyl-N-[(1R,2R)-1-[(cyclopropylsulfonyl)carbamoyl]-2-(difluoromethyl)cyclopropyl]-9-ethyl-14-methoxy-3,6-dioxo-1,1a,3,4,5,6,9,10,18,19,20,21,22,22a-tetradecahydro-8H-7,10-methanocyclopropa[18,19][1,10,3,6]dioxadiazacyclononadecino[11,12-b]quinoxaline-8-carboxamide], for which the Ki is 40 pM. The same measure, in the same setting: to `CC[C@@H]1[C@@H]2CN(C(=O)[C@H](C(C)(C)C)NC(=O)O[C@@H]3C[C@H]3CCCCCc3nc4ccc(OC)cc4nc3O2)[C@@H]1C(=O)N[C@]1(C(=O)NS(=O)(=O)C2CC2)C[C@H]1CC` [Example 3, (1aR,5S,8S,9S,10R,22aR)-5-tert-butyl-N-{(1R,2R)-1-[(cyclopropylsulfonyl)carbamoyl]-2-ethylcyclopropyl}-9-ethyl-14-methoxy-3,6-dioxo-1,1a,3,4,5,6,9,10,18,19,20,21,22,22a-tetradecahydro-8H-7,10-methanocyclopropa[18,19][1,10,3,6]dioxadiazacyclononadecino[11,12-b]quinoxaline-8-carboxamide] belongs 560 pM; to `CC[C@@H]1[C@@H]2CN(C(=O)[C@H](C(C)(C)C)NC(=O)O[C@@H]3C[C@H]3CCCCCc3nc4ccc(OC)cc4nc3O2)[C@@H]1C(=O)N[C@]1(C(=O)NS(=O)(=O)C2(C)CC2)C[C@H]1CC` [Example 4, (1aR,5S,8S,9S,10R,22aR)-5-tert-butyl-9-ethyl-N-[(1R,2R)-2-ethyl-1-{[(1-methylcyclopropyl)sulfonyl]carbamoyl}cyclopropyl]-14-methoxy-3,6-dioxo-1,1a,3,4,5,6,9,10,18,19,20,21,22,22a-tetradecahydro-8H-7,10-methanocyclopropa[18,19][1,10,3,6]dioxadiazacyclononadecino[11,12-b]quinoxaline-8-carboxamide], 560 pM; to `CC[C@@H]1[C@@H]2CN(C(=O)[C@H](C(C)(C)C)NC(=O)O[C@@H]3CCC[C@H]3CCCCCc3nc4ccc(OC)cc4nc3O2)[C@@H]1C(=O)N[C@]1(C(=O)NS(=O)(=O)C2(C)CC2)C[C@H]1C(F)F` [Example 6, (3aR,7S,10S,11S,12R,24aR)-7-tert-butyl-N-[(1R,2R)-2-(difluoromethyl)-1-{[(1-methylcyclopropyl)sulfonyl]carbamoyl}cyclopropyl]-11-ethyl-16-methoxy-5,8-dioxo-1,2,3,3a,5,6,7,8,11,12,20,21,22,23,24,24a-hexadecahydro-10H-9,12-methanocyclopenta[18,19][1,10,3,6]dioxadiazacyclononadecino[11,12-b]quinoxaline-10-carboxamide], 620 pM. Same read-out and setting: to `CC[C@@H]1[C@@H]2CN(C(=O)[C@H](C(C)(C)C)NC(=O)O[C@@]3(C)C[C@@H]3CCCCCc3nc4ccc(OC)cc4nc3O2)[C@@H]1C(=O)N[C@]1(C(=O)NS(=O)(=O)C2(C)CC2)C[C@H]1C(F)F` [Example 8, (1aS,5S,8S,9S,10R,22aS)-5-tert-butyl-N-[(1R,2R)-2-(difluoromethyl)-1-{[(1-methylcyclopropyl)sulfonyl]carbamoyl}cyclopropyl]-9-ethyl-14-methoxy-1a-methyl-3,6-dioxo-1,1a,3,4,5,6,9,10,18,19,20,21,22,22a-tetradecahydro-8H-7,10-methanocyclopropa[18,19][1,10,3,6]dioxadiazacyclononadecino[11,12-b]quinoxaline-8-carboxamide] belongs 420 pM.

The test is the same for the next values; noted with them: read-out: Ki 3A, 200 pM enzyme, 20 μM NS4A peptide, 2 μM substrate.
As to `CC[C@@H]1[C@@H]2CN(C(=O)[C@H](C3CCCC3)NC(=O)O[C@@H]3C[C@H]3CCCCCc3nc4ccc(OC)cc4nc3O2)[C@@H]1C(=O)N[C@]1(C(=O)NS(=O)(=O)C2CC2)C[C@H]1C(F)F` [Example 15, (1aR,5S,8S,9S,10R,22aR)-5-cyclopentyl-N-[(1R,2R)-1-[(cyclopropylsulfonyl)carbamoyl]-2-(difluoromethyl)cyclopropyl]-9-ethyl-14-methoxy-3,6-dioxo-1,1a,3,4,5,6,9,10,18,19,20,21,22,22a-tetradecahydro-8H-7,10-methanocyclopropa[18,19][1,10,3,6]dioxadiazacyclononadecino[11,12-b]quinoxaline-8-carboxamide], the Ki amounted to 300 pM.

On to `COc1ccc2nc3c(nc2c1)O[C@H]1CN(C(=O)[C@H](C(C)(C)C)NC(=O)O[C@@H]2C[C@H]2CCCCC3)[C@H](C(=O)N[C@]2(C(=O)NS(=O)(=O)C3CC3)C[C@H]2C(F)F)[C@@H]1C` [Example 19, (1aR,5S,8S,9S,10R,22aR)-5-tert-butyl-N-[(1R,2R)-1-[(cyclopropylsulfonyl)carbamoyl]-2-(difluoromethyl)cyclopropyl]-14-methoxy-9-methyl-3,6-dioxo-1,1a,3,4,5,6,9,10,18,19,20,21,22,22a-tetradecahydro-8H-7,10-methanocyclopropa[18,19][1,10,3,6]dioxadiazacyclononadecino[11,12-b]quinoxaline-8-carboxamide], for which the Ki came out at 130 pM. The same measure, in the same setting: the value for `CC[C@@H]1C[C@]1(NC(=O)[C@@H]1[C@H](C)[C@@H]2CN1C(=O)[C@H](C(C)(C)C)NC(=O)O[C@@H]1C[C@H]1CCCCCc1nc3ccc(OC)cc3nc1O2)C(=O)NS(=O)(=O)C1CC1` [Example 20, (1aR,5S,8S,9S,10R,22aR)-5-tert-butyl-N-{(1R,2R)-1-[(cyclopropylsulfonyl)carbamoyl]-2-ethylcyclopropyl}-14-methoxy-9-methyl-3,6-dioxo-1,1a,3,4,5,6,9,10,18,19,20,21,22,22a-tetradecahydro-8H-7,10-methanocyclopropa[18,19][1,10,3,6]dioxadiazacyclononadecino[11,12-b]quinoxaline-8-carboxamide] was 530 pM.

Broadly, the Ki is the dissociation constant of the complex between target and ligand, obtained from inhibition or displacement.
